Results from patent publication US20090298820A1, “3-SUBSTITUTED-1H-PYRROLO[2,3-B]PYRIDINE AND 3-SUBSTITUTED-1H-PYRROLO[3,2-B]PYRIDINE COMPOUNDS, THEIR USE AS MTOR KINASE AND PI3 KINASE INHIBITORS, AND THEIR SYNTHESES” (Wyeth, priority 2008, published 2009).

Columns and labels:
Format in all cases: biochemical
[1] = target: PI3Kα (Homo sapiens, UniProt P42336); assay: PI3K-alpha fluorescence polarization assay; settings: read-out: PI3Kα Median IC50
[2] = target: PI3Kγ (Homo sapiens, UniProt P48736); assay: PI3K-gamma fluorescence polarization assay; settings: read-out: PI3Kγ Median IC50
Chain of PI3Kγ (P48736 whole entry, species assumed): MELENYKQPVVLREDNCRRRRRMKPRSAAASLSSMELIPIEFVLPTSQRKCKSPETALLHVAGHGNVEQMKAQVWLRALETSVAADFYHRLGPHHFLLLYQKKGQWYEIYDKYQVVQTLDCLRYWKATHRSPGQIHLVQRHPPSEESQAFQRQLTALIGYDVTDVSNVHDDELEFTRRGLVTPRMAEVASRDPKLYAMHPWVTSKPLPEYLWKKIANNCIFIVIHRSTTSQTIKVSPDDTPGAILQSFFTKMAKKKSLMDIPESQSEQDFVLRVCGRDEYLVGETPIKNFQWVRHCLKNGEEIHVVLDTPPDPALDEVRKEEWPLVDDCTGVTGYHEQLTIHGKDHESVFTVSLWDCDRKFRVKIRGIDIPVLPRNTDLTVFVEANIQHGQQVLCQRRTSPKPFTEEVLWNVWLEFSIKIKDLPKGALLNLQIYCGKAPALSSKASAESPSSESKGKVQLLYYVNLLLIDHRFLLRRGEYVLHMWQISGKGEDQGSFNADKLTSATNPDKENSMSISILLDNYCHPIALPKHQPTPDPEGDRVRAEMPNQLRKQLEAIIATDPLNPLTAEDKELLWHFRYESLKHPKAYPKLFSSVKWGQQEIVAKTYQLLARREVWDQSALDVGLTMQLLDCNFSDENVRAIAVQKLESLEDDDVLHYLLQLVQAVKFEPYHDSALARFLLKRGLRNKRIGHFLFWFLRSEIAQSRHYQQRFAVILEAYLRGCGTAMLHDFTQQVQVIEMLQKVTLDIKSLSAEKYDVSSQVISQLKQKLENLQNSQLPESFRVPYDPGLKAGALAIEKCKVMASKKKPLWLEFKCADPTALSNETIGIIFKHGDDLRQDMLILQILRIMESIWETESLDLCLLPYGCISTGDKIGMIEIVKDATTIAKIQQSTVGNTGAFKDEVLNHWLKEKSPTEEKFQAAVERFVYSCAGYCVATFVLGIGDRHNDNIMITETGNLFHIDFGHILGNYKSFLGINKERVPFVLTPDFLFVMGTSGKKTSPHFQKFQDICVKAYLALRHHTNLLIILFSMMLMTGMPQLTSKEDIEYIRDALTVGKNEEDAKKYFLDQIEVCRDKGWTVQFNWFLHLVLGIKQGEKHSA

[3] = target: mTOR (Homo sapiens, UniProt P42345); assay: mTOR enzyme assay (DELFIA format, His6-S6K substrate); settings: read-out: mTOR Kinase Median IC50

Chain of PI3Kα (P42336 whole entry, species assumed): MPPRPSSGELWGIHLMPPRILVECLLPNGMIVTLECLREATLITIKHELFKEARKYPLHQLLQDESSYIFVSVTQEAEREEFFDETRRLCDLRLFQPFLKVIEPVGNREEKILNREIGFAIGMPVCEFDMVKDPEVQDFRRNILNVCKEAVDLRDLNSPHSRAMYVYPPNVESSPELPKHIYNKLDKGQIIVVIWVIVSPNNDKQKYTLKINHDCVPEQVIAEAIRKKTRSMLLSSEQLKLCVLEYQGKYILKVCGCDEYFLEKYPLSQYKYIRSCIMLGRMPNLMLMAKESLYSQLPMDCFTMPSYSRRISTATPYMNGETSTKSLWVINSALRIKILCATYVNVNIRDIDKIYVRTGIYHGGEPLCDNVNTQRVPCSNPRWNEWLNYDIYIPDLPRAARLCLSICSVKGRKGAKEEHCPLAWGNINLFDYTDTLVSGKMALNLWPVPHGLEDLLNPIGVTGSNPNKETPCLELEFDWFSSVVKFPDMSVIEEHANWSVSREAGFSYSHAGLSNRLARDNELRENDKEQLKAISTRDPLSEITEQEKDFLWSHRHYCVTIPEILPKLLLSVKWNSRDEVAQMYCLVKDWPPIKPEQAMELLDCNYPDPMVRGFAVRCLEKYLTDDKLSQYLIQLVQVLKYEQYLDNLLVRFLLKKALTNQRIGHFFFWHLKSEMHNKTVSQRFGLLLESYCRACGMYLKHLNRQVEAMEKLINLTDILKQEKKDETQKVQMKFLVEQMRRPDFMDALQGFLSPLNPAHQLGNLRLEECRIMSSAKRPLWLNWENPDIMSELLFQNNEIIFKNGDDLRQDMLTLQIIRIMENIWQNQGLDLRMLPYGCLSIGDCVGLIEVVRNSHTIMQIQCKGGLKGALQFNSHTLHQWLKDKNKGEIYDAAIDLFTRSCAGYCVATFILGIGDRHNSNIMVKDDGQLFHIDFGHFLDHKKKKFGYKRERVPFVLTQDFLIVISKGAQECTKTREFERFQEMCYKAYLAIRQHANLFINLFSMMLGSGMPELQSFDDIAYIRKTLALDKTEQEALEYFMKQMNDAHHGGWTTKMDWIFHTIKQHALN
Chain of PI3Kα (P27986 whole entry partner, species assumed): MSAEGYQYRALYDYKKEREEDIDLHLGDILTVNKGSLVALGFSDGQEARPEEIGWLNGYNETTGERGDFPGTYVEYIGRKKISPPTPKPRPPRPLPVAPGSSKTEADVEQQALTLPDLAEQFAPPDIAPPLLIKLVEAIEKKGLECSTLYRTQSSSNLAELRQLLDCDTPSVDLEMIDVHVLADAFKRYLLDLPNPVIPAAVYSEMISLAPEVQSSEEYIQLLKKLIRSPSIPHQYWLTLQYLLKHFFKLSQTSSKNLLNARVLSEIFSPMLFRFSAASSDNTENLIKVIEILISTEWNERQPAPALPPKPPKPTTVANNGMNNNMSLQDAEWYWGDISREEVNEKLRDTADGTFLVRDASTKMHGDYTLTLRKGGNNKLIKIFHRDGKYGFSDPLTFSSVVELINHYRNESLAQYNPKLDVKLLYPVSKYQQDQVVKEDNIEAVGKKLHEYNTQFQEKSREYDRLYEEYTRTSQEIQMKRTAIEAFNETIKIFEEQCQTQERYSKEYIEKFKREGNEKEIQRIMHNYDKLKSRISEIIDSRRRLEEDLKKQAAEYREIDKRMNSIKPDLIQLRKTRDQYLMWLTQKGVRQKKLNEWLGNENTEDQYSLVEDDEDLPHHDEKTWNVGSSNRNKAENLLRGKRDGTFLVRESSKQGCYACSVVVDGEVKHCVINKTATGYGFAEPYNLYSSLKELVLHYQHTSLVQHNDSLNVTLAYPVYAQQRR

| SMILES | IC50 [1] [µM] | IC50 [2] [µM] | IC50 [3] [µM] |
| --- | --- | --- | --- |
| Cn1cc(/C=C2\Oc3cccc(O)c3C2=O)c2c(-c3ccc(N4CCNCC4)cc3)ccnc21 [Compound 135, (2Z)-4-hydroxy-2-{[1-methyl-4-(4-piperazin-1-ylphenyl)-1H-pyrrolo[2,3-b]pyridin-3-yl]methylene}-1-benzofuran-3(2H)-one] | 0.156 | 1.42 | 0.01 |
| Cn1cc(/C=C2\Oc3cccc(O)c3C2=O)c2c(-c3ccc(F)c(C(=O)Nc4ccccc4)c3)ccnc21 [Compound 137, 2-fluoro-5-{3-[(Z)-(4-hydroxy-3-oxo-1-benzofuran-2(3H)-ylidene)methyl]-1-methyl-1H-pyrrolo[2,3-b]pyridin-4-yl}-N-phenylbenzamide] | 0.122 | 0.256 | 0.0049 |
| Cn1cc(/C=C2\Oc3cccc(O)c3C2=O)c2c(-c3ccc(C(=O)N4CCN(CCO)CC4)cc3)ccnc21 [Compound 146, (2Z)-4-hydroxy-2-{[4-(4-{[4-(2-hydroxyethyl)piperazin-1-yl]carbonyl}phenyl)-1-methyl-1H-pyrrolo[2,3-b]pyridin-3-yl]methylidene}-1-benzofuran-3(2H)-one] | 0.1 | 0.101 | 0.0004 |
| CN(C)CCNC(=O)c1ccc(-c2ccnc3c2c(/C=C2\Oc4cccc(O)c4C2=O)cn3C)cc1 [Compound 158, N-[2-(dimethylamino)ethyl]-4-{3-[(Z)-(4-hydroxy-3-oxo-1-benzofuran-2(3H)-ylidene)methyl]-1-methyl-1H-pyrrolo[2,3-b]pyridin-4-yl}benzamide] | 0.179 | 0.149 | 0.0086 |
| CN(C)CCOc1cccc2c1C(=O)/C(=C/c1cn(C)c3nccc(-c4ccccc4)c13)O2 [Compound 159, (2Z)-4-[2-(dimethylamino)ethoxy]-2-[(1-methyl-4-phenyl-1H-pyrrolo[2,3-b]pyridin-3-yl)methylidene]-1-benzofuran-3(2H)-one] | 1.45 | 4.15 | 0.0705 |
| Cn1cc(/C=C2\Oc3cccc(O)c3C2=O)c2c(N3CC4COC(C3)O4)ccnc21 (stereo not drawn) [Compound 165, (2Z)-2-{[4-(6,8-dioxa-3-azabicyclo[3.2.1]oct-3-yl)-1-methyl-1H-pyrrolo[2,3-b]pyridin-3-yl]methylidene}-4-hydroxy-1-benzofuran-3(2H)-one] | 0.025 | 0.144 | 0.0027 |
| CNC(=O)Nc1ccc2c(c1)C(=O)/C(=C/c1cn(C)c3nccc(-c4ccc(C(=O)N5CCN(CCO)CC5)cc4)c13)O2 [Compound 166, 1-[(2Z)-2-{[4-(4-{[4-(2-hydroxyethyl)piperazin-1-yl]carbonyl}phenyl)-1-methyl-1H-pyrrolo[2,3-b]pyridin-3-yl]methylidene}-3-oxo-2,3-dihydro-1-benzofuran-5-yl]-3-methylurea] | 0.252 | 0.343 | 0.0155 |
| CCOC(=O)Nc1ccc2c(c1)C(=O)/C(=C/c1cn(C)c3nccc(N4CCC(C(=O)N(C)C)CC4)c13)O2 [Compound 171, ethyl[(2Z)-2-({4-[4-(dimethylcarbamoyl)piperidin-1-yl]-1-methyl-1H-pyrrolo[2,3-b]pyridin-3-yl}methylidene)-3-oxo-2,3-dihydro-1-benzofuran-5-yl]carbamate] | 2 | 8.75 | 0.0665 |
| Cn1cc(/C=C2\Oc3ccc(NC(=O)Nc4ccccc4)cc3C2=O)c2c(N3CC4CCC(C3)O4)ccnc21 [Compound 172, 1-[(2Z)-2-{[1-methyl-4-(8-oxa-3-azabicyclo[3.2.1]oct-3-yl)-1H-pyrrolo[2,3-b]pyridin-3-yl]methylidene}-3-oxo-2,3-dihydro-1-benzofuran-5-yl]-3-phenylurea] | 0.498 | 1.12 | 0.145 |

Further compounds by falling IC50 [1], results first:

| IC50 [1] [µM] | IC50 [2] [µM] | IC50 [3] [µM] | SMILES |
| --- | --- | --- | --- |
| 1.58 | > 10 | 0.008 | Cn1cc(/C=C2\Oc3cccc(O)c3C2=O)c2c(-c3ccc(N4CCCCC4)cc3)ccnc21 [Compound 142, (2Z)-4-hydroxy-2-{[1-methyl-4-(4-piperidin-1-ylphenyl)-1H-pyrrolo[2,3-b]pyridin-3-yl]methylidene}-1-benzofuran-3(2H)-one] |
| 1.32 | > 10 | 0.0805 | Cn1cc(/C=C2\Oc3cccc(O)c3C2=O)c2c(-c3ccc(N4CCCC4)cc3)ccnc21 [Compound 143, (2Z)-4-hydroxy-2-{[1-methyl-4-(4-pyrrolidin-1-ylphenyl)-1H-pyrrolo[2,3-b]pyridin-3-yl]methylidene}-1-benzofuran-3(2H)-one] |
| 0.802 | 8.64 | 0.0062 | CN1CCOc2cc(-c3ccnc4c3c(/C=C3\Oc5cccc(O)c5C3=O)cn4C)ccc21 [Compound 126, (2Z)-4-hydroxy-2-{[1-methyl-4-(4-methyl-3,4-dihydro-2H-1,4-benzoxazin-7-yl)-1H-pyrrolo[2,3-b]pyridin-3-yl]methylene}-1-benzofuran-3(2H)-one] |
| 0.154 | 0.263 | 0.0032 | Cn1cc(/C=C2\Oc3cccc(O)c3C2=O)c2c(-c3ccc(CN4CCOCC4)cc3)ccnc21 [Compound 130, (2Z)-4-hydroxy-2-({1-methyl-4-[4-(morpholin-4-ylmethyl)phenyl]-1H-pyrrolo[2,3-b]pyridin-3-yl}methylene)-1-benzofuran-3(2H)-one] |
| 0.141 | 1.23 | 0.0078 | Cn1cc(/C=C2\Oc3cccc(O)c3C2=O)c2c(-c3cccc(C(=O)Nc4ccccc4)c3)ccnc21 [Compound 138, 3-{3-[(Z)-(4-hydroxy-3-oxo-1-benzofuran-2(3H)-ylidene)methyl]-1-methyl-1H-pyrrolo[2,3-b]pyridin-4-yl}-N-phenylbenzamide] |
| 0.107 | 0.829 | 0.0081 | Cn1cc(/C=C2\Oc3cccc(O)c3C2=O)c2c(-c3ccc(-c4ccco4)cc3)ccnc21 [Compound 127, (2Z)-2-({4-[4-(2-furyl)phenyl]-1-methyl-1H-pyrrolo[2,3-b]pyridin-3-yl}methylene)-4-hydroxy-1-benzofuran-3(2H)-one] |
| 0.048 | 0.062 | 0.0017 | COCCNC(=O)c1ccc(-c2ccnc3c2c(/C=C2\Oc4cccc(O)c4C2=O)cn3C)cc1 [Compound 149, 4-{3-[(Z)-(4-hydroxy-3-oxo-1-benzofuran-2(3H)-ylidene)methyl]-1-methyl-1H-pyrrolo[2,3-b]pyridin-4-yl}-N-(2-methoxyethyl)benzamide] |
| 0.043 | 0.093 | 0.013 | Cn1cc(/C=C2\Oc3cccc(O)c3C2=O)c2c(-c3cccc(O)c3)ccnc21 [Compound 125, (2Z)-4-hydroxy-2-{[4-(3-hydroxyphenyl)-1-methyl-1H-pyrrolo[2,3-b]pyridin-3-yl]methylene}-1-benzofuran-3(2H)-one] |
| 0.038 | 0.054 | 0.0006 | Cn1cc(/C=C2\Oc3cccc(O)c3C2=O)c2c(-c3ccc(C(=O)NCCCO)cc3)ccnc21 [Compound 147, 4-{3-[(Z)-(4-hydroxy-3-oxo-1-benzofuran-2(3H)-ylidene)methyl]-1-methyl-1H-pyrrolo[2,3-b]pyridin-4-yl}-N-(3-hydroxypropyl)benzamide] |
| 0.027 | 0.106 | 0.002 | Cn1cc(/C=C2\Oc3cccc(O)c3C2=O)c2c(-c3ccc(C(=O)N4CCNCC4)cc3)ccnc21 [Compound 136, (2Z)-4-hydroxy-2-({1-methyl-4-[4-(piperazin-1-ylcarbonyl)phenyl]-1H-pyrrolo[2,3-b]pyridin-3-yl}methylene)-1-benzofuran-3(2H)-one] |
